According to patent US10265374B2, “Occidiofungin formations and uses thereof” (MISSISSIPPI STATE UNIVERSITY, priority 2014, dated 2019):
Several values for one entry are separate records, joined by “and”; a condition that tells them apart may be missing. Equal values may be shown once. Entries after “also recorded” stand apart in the source; their conditions may differ.

Key:
Candida albicans = Candida albicans (References 9, 10); cited from earlier work
[1] = test system: normal human neonatal dermal fibroblasts cell line; test: In vitro toxicity screening (CellTiter-Blue cell viability, 48 hours); format: cell-based
Text: (§1) Cancer cell lines, OVCAR8 (Center for Cancer Research (OVAR.8; Sample ID 25)), SW1088 (ATCC-HTB-12), and Toledo (ATCC CRL-2631), and normal human neonatal dermal fibroblasts cell line (ATCC-PCS-201-010) were passaged and prepped as previously described (See References 15-17). OVCAR8, SW1088, and Toledo2631 are ovarian, brain, and B-cell lymphoma cancer cell lines, respectively. This panel of cell lines was chosen based, in part, on their being from very different cancer types in order to discern whether occidiofungin would have a broad spectrum activity towards cancer cell lines of vastly different parental organ/cell types. OVCAR8 cells are widely used in the field of cancer therapeutic research as a panel representative of ovarian cancer in screening experiments for identifying both ovarian-specific and non-specific (i.e., anti-neoplastic activity on multiple cancer cell types) therapeutic agents (See References 28-30). Similarly, SW1088 cells are widely used in the field of cancer therapeutic research as a panel representative of glioma (the most common brain cancer) in screening experiments for identifying both glioma-specific and non-specific therapeutic agents (See References 31-32). Toledo 2631 cells are derived from lymphoma cells, and are used in the field of cancer therapeutic research for identifying lymphoma-specific and non-specific therapeutic agents (See, e.g., Reference 33). […] Cell counts per plate were calculated to be approximately 50,000 cells/mL. A 10× stock solution of occidiofungin was prepared at 65 μM concentration in 10% dimethyl sulfoxide (DMSO). Two-fold serial dilutions on a 96 well plate were set up in triplicate with starting concentration of 6.5 μM and a final concentration of 3 nM. Bortezomib was used as a comparator for toxicity against human fibroblast and was serially diluted two-fold starting at a concentration of 5 μM and ending at 2.5 nM. Bortezomib is used clinically against myeloma and lymphoma cancers in patients refractory against other chemotherapeutics (See References 18, 19). Furthermore, bortezomib has shown efficacy against a variety of solid tumors and cancer cell lines, making this an appropriate comparison molecule in the panel of cell lines chosen (See References 34-35). The plates were then incubated at 37° C. in 5% CO2 for 48 hours. After 48 hours, cell viability was monitored using CellTiter-Blue (Promega) cell viability assay by measuring the fluorescence emission of a redox activated dye (579EX/584EM) using a POLARstar Omega microplate reader (BMG Labtech).

OVCAR8 = test: as above; format: cell-based, human
Text: as §1

SW1088 = test: as above; format: cell-based, human; conditions: SW1088 astrocytoma brain cancer cell line, mean of three independent experiments, read-out: TC50 (the source's name)
Text: as §1

Toledo (ATCC CRL-2631) = test: as above; format: cell-based, human; conditions: Toledo CRL-2631 B-cell lymphoma cell line, mean of three independent experiments, read-out: TC50 (the source's name)
Text: as §1

[2] = Single dose toxicity study, i.v. occidiofungin in 1.5% hydroxy propyl-beta-cyclodextrin/PBS; format: in vivo, mice
Method: Female BALB/c mice at age of 6-8 weeks old were used. These mice were purchased from Harlan and allowed to acclimate at least 2 weeks after arrival. They were housed on a 12 hour light-dark cycle in a temperature and humidity controlled animal facility that is accredited by the American Association for Accreditation of Laboratory Animal Care. Animal care and use were in accord with NIH Guidelines and Texas A&M University regulations. Protocols used for the mice models were done in accordance to the methods reported by Luster et al. (See Reference 12).
Occidiofungin was produced as previously described and aliquoted and lyophilized into 100 μg quantities in 1.8 mL centrifuge tubes. […] Mice (5 mice per group) were given occidiofungin dissolved in 1.5% hydroxy propyl-beta-cylcodextrin suspended in phosphate buffered saline (PBS). […] For the experiments, occidiofungin was administered by intravenous (i.v.) injection into the tail vein at a single dose at 5 mg/kg of body weight. The excipient control in each experiment matched the vehicle. Body weight and clinical signs (movement, posture, skin lesions, appearance of fur indicating normal grooming, and behaviors) were recorded following administration at one, four, eight, sixteen, and twenty-four hours. Necropsies were performed at 24 hours following administration of occidiofungin.
Blood and tissue samples from animals dosed at 5 mg/kg of body weight with occidiofungin in 1.5% hydroxy propyl-beta-cylcodextrin suspended in PBS were taken 24 hours following excipient or drug administration. Mice were anesthetized with isofluorane. Blood was then taken from the retroorbital plexus or heart puncture for serum biochemistry assays (alkaline phosphatase, alanine aminotransferase, aspartate aminotransferase, albumin, and blood urea nitrogen) and hematology (white blood cell count and white blood cell differentiation). Body weight was measured immediately before treatment and 24 hours later before the mice were fully anesthetized and fixed in 10% neutral buffered formalin. Histological examination was performed on a portion of each organ by using routine paraffin embedding technique and staining with hematoxylin and eosin (H & E) (See Reference 14). All the sections were examined under light microscopy for pathological changes by a co-author of this paper, who is a board certified veterinary pathologist.

wide array of fungi = conditions: cited from earlier work
[3] = single IV dose 5 mg/kg, 24 hours
[4] = single IV dose 5 mg/kg, 24 hours, mean, 5 mg/kg

occidiofungin
fungicidal activity compared with caspofungin (Candida albicans): more rapid | cancer cell lines relative to normal human primary dermal fibroblasts cell line ([1]; TC50 of OVCAR8, SW1088, Toledo vs fibroblasts): approximately eight-fold higher | CC50 ([1]; human fibroblast cell line, 48 hours, mean of three independent experiments, read-out: TC50 (the source's name)): 0.533 µM | activity relative to bortezomib against the human fibroblast cell line ([1]; occidiofungin vs bortezomib): approximately eight-fold higher | CC50 (OVCAR8; OVCAR8 ovarian cancer cell line, 48 hours, mean of three independent experiments, read-out: TC50 (the source's name)): 0.061 µM | activity against the cancer cell lines relative to what has been reported against Candida species (OVCAR8; cancer cell lines OVCAR8, SW1088, Toledo together): ten to twenty-fold higher | CC50 (SW1088): 0.068 µM | CC50 (Toledo (ATCC CRL-2631)): 0.07 µM | behavioral response at 1 hour and to a lesser extent at 4 hours post i.v. administration ([2]; 5 mg/kg i.v.): more lethargic than excipient treated mice and had ruffled fur | mice behavior by 8, 16, and 24 hour post injection ([2]; 5 mg/kg i.v.): appeared to be normal | histological examination of organ tissues ([2]; 5 mg/kg i.v., 24 hours, esophagus, stomach, small intestine, colon, liver, pancreas, spleen, kidneys, lungs, heart, brain): no histological abnormalities; also recorded: No observable differences | ratio of AST to ALT in all treated mice ([2]; 5 mg/kg i.v., 24 hours, ratio less than one indicative of liver damage): greater than one | average weight loss ([2]; single 5 mg/kg i.v. dose, 24 hours): 6.2% | Hematology: Lymphocytes % [2, 3]: 54 ± 15% | Hematology: Neutrophils % [2, 3]: 43 ± 14% | Hematology: Platelet estimate [2, 3]: 39 ± 21 xK/ul | Hematology: WBC estimate [2, 3]: 4750 ± 1225 | Serum Biochemistry: ALP [2, 3]: 99 ± 34 U/l | Serum Biochemistry: Albumin [2, 3]: 3.1 ± 0.6 g/dL | Serum Biochemistry: BUN [2, 3]: 29.6 ± 5 mg/dL | Weight Change % ([2]; single IV dose 5 mg/kg, 24 hours after administration, mean ± SD): −6.2 ± 9.9% | Serum Biochemistry: ALT (SGPT) [2, 4]: 521 U/l and 521 ± 652 U/l | Serum Biochemistry: AST (SGOT) [2, 4]: 765 U/l and 765 ± 692 U/l | toxicity observed in mice ([2]; single i.v. dose at 5 mg/kg): no significant toxicity | concentrations at which antifungal activity was observed (wide array of fungi): micromolar to sub micromolar
